In brackets after ≈: the same amount, converted by molar mass. Several values for one entry are separate records, joined by “and”; a condition that tells them apart may be missing. Equal values may be shown once.

What is called MIC is the lowest concentration found to suppress growth. Low values mean a more susceptible organism, high ones a less susceptible organism.

Holding throughout (assay): ≥ marks a high value that may be exact or a test limit, other limits are often not marked, values filed in µg/mL are converted to µM
In assay [1] the test system is Pseudomonas aeruginosa ATCC 9027.
Assay [2] deals with Candida albicans ATCC 36232.
Assay [3] deals with Escherichia coli ATCC 2592.
Assay [4] deals with Staphylococcus aureus ATCC 6538.
For assay [5], the system named is Pseudomonas aeruginosa H1001.
The subject of assay [6] is Micrococcus luteus ATCC 9341.

Consider `CC(C)C[C@H](NC(=O)[C@H](CS)NC(=O)[C@H](CCCCN)NC(=O)[C@H](C)NC(=O)[C@H](C)NC(=O)[C@H](CS)NC(=O)[C@H](C)NC(=O)[C@H](C)NC(=O)[C@@H](N)CCCCN)C(=O)N[C@@H](Cc1c[nH]c2ccccc12)C(=O)N[C@@H](CCCN=C(N)N)C(N)=O` [KAACAAKCLWR], for which the MIC is 81.9 µM and 164 µM in assay [1]; no less than 164 µM in assay [2]; no less than 164 µM in assay [3]; 41 µM and 81.9 µM in assay [4].
The compound `NCCCC[C@H](NC(=O)[C@H](CCCN=C(N)N)NC(=O)[C@H](Cc1c[nH]c2ccccc12)NC(=O)[C@H](CCCCN)NC(=O)[C@H](Cc1c[nH]c2ccccc12)NC(=O)[C@H](Cc1c[nH]c2ccccc12)NC(=O)[C@H](Cc1cnc[nH]1)NC(=O)[C@H](Cc1ccccc1)NC(=O)[C@@H](N)CCCCN)C(N)=O` [KFHWWKWRK] had an MIC in assay [5] of no less than 178 µM.
As to `CC(C)[C@H](NC(=O)[C@H](CCCCN)NC(=O)[C@H](Cc1ccccc1)NC(=O)[C@@H](NC(=O)[C@@H](NC(=O)[C@H](CCCCN)NC(=O)[C@@H](N)CCCCN)C(C)C)C(C)C)C(=O)N[C@@H](CCCCN)C(=O)N[C@@H](Cc1ccccc1)C(=O)N[C@@H](CCCCN)C(=O)N[C@@H](CCCCN)C(=O)N[C@@H](CCCCN)C(N)=O` [KKVVFKVKFKKK], the MIC in assay [2] was 2.08 µM and 1.47 µM and 4.15 µM; in assay [6], 2.08 µM (≈ 3.13 µg/mL); in assay [4] it was 2.08 µM (≈ 3.13 µg/mL).
In assay [5], `CC[C@H](C)[C@H](NC(=O)[C@H](CCCCN)NC(=O)[C@H](Cc1c[nH]c2ccccc12)NC(=O)[C@H](CCCCN)NC(=O)[C@@H](N)CCCCN)C(=O)N[C@H](C(=O)N[C@H](C(=O)N[C@H](C(=O)N[C@@H](CCCN=C(N)N)C(=O)N[C@@H](Cc1c[nH]c2ccccc12)C(=O)N[C@@H](CCCN=C(N)N)C(=O)N[C@@H](CCCN=C(N)N)C(N)=O)[C@@H](C)CC)C(C)C)C(C)C` [KKWKIVVIRWRR] displayed an MIC of 1.2 µM (≈ 2 µg/mL).
In turn, `CC[C@H](C)[C@H](NC(=O)[C@H](C)NC(=O)[C@@H](NC(=O)[C@H](CCCCN)NC(=O)[C@H](CCCCN)NC(=O)[C@H](Cc1cnc[nH]1)NC(=O)[C@@H](NC(=O)[C@H](CCCN=C(N)N)NC(=O)[C@H](CS)NC(=O)[C@@H](N)CC(C)C)C(C)C)[C@@H](C)CC)C(=O)O` [LCRVHKKIAI] gave an MIC in assay [5] of no less than 169 µM.
Still for that read-out and setting: for `CC[C@H](C)[C@H](NC(=O)[C@H](C)NC(=O)[C@@H](N)CC(N)=O)C(=O)N[C@@H](CCCCN)C(=O)N[C@@H](CC(C)C)C(=O)N[C@@H](CC(C)C)C(=O)N[C@@H](CS)C(=O)N[C@@H](CCCN=C(N)N)C(=O)N[C@H](C(=O)N[C@@H](Cc1cnc[nH]1)C(=O)O)C(C)C` [NAIKLLCRVH] the value was no less than 85.7 µM; for `CC[C@H](C)[C@H](NC(=O)[C@H](CCCN=C(N)N)NC(=O)[C@H](CCCN=C(N)N)NC(=O)[C@@H]1CCCN1C(=O)[C@@H]1CCCN1C(=O)[C@H](CCCN=C(N)N)NC(=O)[C@@H]1CCCN1C(=O)[C@H](CCCN=C(N)N)NC(=O)[C@@H]1CCCN1C(=O)[C@H](CC(C)C)NC(=O)[C@H](Cc1ccc(O)cc1)NC(=O)[C@@H]1CCCN1C(=O)[C@@H]1CCCN1C(=O)[C@H](CCCCN)NC(=O)[C@@H]1CCCN1C(=O)[C@@H](N)C(C)C)C(=O)N[C@@H](Cc1ccc(O)cc1)C(=O)N[C@@H](CC(N)=O)C(=O)N[C@@H](CCCN=C(N)N)C(=O)NCC(=O)O` [VPKPPYLPRPRPPRRIYNRG], 0.123 µM (≈ 0.3 µg/mL).
